Assay results published in PMC7881127, “Cholesterol as a modulator of cannabinoid receptor CB2 signaling” (Scientific Reports, 2021).
Entries after “also recorded” stand apart in the source; their conditions may differ.

What was measured:
[1] = target: T1, hCB2 (Homo sapiens, UniProt P34972); experiment: Radioligand ([3H]CP-55,940) displacement binding in hCB2-CHO-K1 cell membranes; settings: hCB2-expressing CHO cell membranes (PerkinElmer), [3H]CP-55,940 displacement; read-out: CB2R binding hCB2R-Ki
T1 construct: purchased PerkinElmer ES111-M400UA; host or cells: CHO-K1 cells stably transfected
Description: The assay was performed as described previously. […] Plasma membranes were from cultured CHO-K1 cells stably transfected with human CB2R (Perkin Elmer). Two microgram plasma membrane protein was used in a 1 mL reaction mixture. Ki values were derived by computerized curve fitting and using the Cheng-Prusoff equation to account for the affinity of the radioligand, using the GraphPad Prism 8 program (GraphPad Prism Software Inc.).

[2] = target: T1, hCB2; experiment: [35S]GTPγS binding assay in hCB2-CHO-K1 cell membranes; type: biochemical; settings: for Functional effect on G-protein signaling (pharmacological category) / Reduced basal signaling: hCB2-expressing CHO cell membranes (PerkinElmer); for Emax: read-out: GTPγS binding Emax
Description: Figure 2 Affinity and functional effects of novel MRI ligands on CB2 receptor in CHO cell membranes. (a) binding affinities (nM) and Emax (% and nM) of [^35S]-GTPγS binding to CHO membranes (PerkinElmer, Cat. No ES111-M400UA) expressing hCB2. (b) [^35S]-GTPγS binding to membranes as a factor of ligand concentration. Binding of [^35S]-GTPγS was determined as described in “Methods”. Non-specific binding was defined as 0% activity. The assay of GTPγS non-specific binding contains non-radioactive GTPγS.
[^35S] GTPγS binding was assayed as described earlier[65] with slight modifications. Briefly, hCB2-CHO-K1 cell membranes (4 µg) were incubated with 0.05 nM [^35S] GTPγS, and the indicated concentrations of ligands in TEM buffer (50 mM Tris–HCl, 0.2 mM EGTA, and 9 mM MgCl2, pH 7.4) containing 100 µM GDP, 150 mM NaCl, and 0.1% (w/v) bovine serum albumin in a total volume of 1 ml for 60 min at 30 °C.

[3] = test system: CB2 receptor; design: method as in PMID 30639103, PMID 18931146; settings: previously reported; cited from earlier work
[4] = test system: natural killer cells; design: method as in PMID 15749836; settings: cited from earlier work
[5] = test system: microglia; design: method as in PMID 16343349; settings: cited from earlier work
[6] = target: cannabinoid receptor CB2 (Homo sapiens, UniProt P34972); experiment: [35S]GTP nucleotide exchange (GEF) G protein activation assay on CB2 in cell membrane preparations; type: biochemical; design: purchased PerkinElmer; Millipore ChemiScreen; Applied Cell Sciences; Signal Screen (Sf9); E. coli BL21 (DE3) and Expi293F membranes were made in house; ES111-M400UA; A318; 6110130; host or cells: CHO, CHO-K1, Sf9, Expi293F, Expi293F GNTI-, E. coli BL21 (DE3); settings: for Pharmacological category in GEF assay: ligand 2 μM
From the text: To better understand the reason for these discrepancies, we assessed the activation of CB2 receptor by the in vitro G protein activation assay that measures the rates of nucleotide exchange on the Gα subunit of G protein (GEF assay) as described previously[33],[34]. The assay reports the rates of formation of the complex of [^35S]-GTPγS, a homolog of GTP, with the Gα subunit of G protein. Typical assay conditions require small (nanogram) quantities of the receptor protein either in cell membranes or reconstituted into lipid bilayers. The readout of the assay is the amount of the non-hydrolysable complex of Gα with [^35S]-GTPγS which, under selected experimental conditions, is proportional to the amount of activated receptor in the assay.
Figure 3 GEF of CB2 expressed in: (a) E. coli membranes and (b) CHO membranes (Millipore EMD). 2 μg of total protein per assay. Each point represents an average of four independent measurements (n = 4). Ligands were added at a concentration of 2 μM to ensure saturation of the receptor, and G protein was added as described in “Methods”. The dotted line indicates the rates of activation of G protein in the absence of a ligand. The rates of activation with […] are set to 100%, and rates of activation in the presence of SR-144,528 to 0%.
Figure 4 GEF on CB2 expressed in different cell lines. An amount of 2 μg of membrane protein per assay was used. Each data points represents an average of four independent measurements (n = 4) with error rates indicated by the bars. 100% represents full activation in the presence of 2 μM of CP-55,940, and 0%–with 2 μM SR-144,528.
The subunits of G protein were expressed and purified as described previously. The nucleotide exchange assay was performed as previously described.

[7] = CB2 in CHO membranes (EMD Millipore)
[8] = CB2 in E. coli BL21 (DE3) membranes (untreated)

T1 sequence (P34972 whole entry): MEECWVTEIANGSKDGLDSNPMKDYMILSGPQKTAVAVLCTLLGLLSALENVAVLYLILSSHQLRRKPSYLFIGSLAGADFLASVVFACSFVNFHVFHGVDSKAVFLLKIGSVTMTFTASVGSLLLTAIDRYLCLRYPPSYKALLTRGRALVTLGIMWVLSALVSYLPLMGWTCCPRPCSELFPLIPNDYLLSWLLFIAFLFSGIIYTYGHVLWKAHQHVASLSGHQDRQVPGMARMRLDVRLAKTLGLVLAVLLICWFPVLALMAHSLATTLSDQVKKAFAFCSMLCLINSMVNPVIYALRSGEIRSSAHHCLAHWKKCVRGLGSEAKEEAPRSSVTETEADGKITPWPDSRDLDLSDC
Chain of cannabinoid receptor CB2 (P34972 whole entry): as above

Compound	Ki [1] [nM]	EC50 [2] [nM]	Functional effect on G-protein signaling (pharmacological category) [2]	Reduced basal signaling [2] [%]	Emax [2] [%]	Activity on the CB2 receptor (category) [3]	also measured
CC(=O)OCCn1c(=NC(=O)C2C(C)(C)C2(C)C)sc2cc(C)ccc21 [MRI-2687, 2-(6-methyl-2-((2,2,3,3-tetramethylcyclopropane-1-carbonyl)imino)benzo[d]thiazol-3(2H)-yl)ethyl acetate]	0.1 ± 0.01	1.23 ± 0.09	inverse agonism	55	-35 ± 1	inverse agonist	–
COCCn1c(C)c(C)s/c1=N\C(=O)C1C(C)(C)C1(C)C [A-836339, 2,2,3,3-tetramethyl-cyclopropanecarboxylic acid [3-(2-methoxy-ethyl)-4,5-dimethyl-3H-thiazol-(2Z)-ylidene]-amide, reference compound]	–	–	–	–	–	agonist	–
CCCCCc1cc(O)c2c(c1)OC(C)(C)[C@@H]1CCC(C)=C[C@@H]21 [THC, Δ^9-tetrahydrocannabinol]	–	–	–	–	–	–	CB2 activity on 2-AG-induced migration of natural killer cells [4]: no CB2 agonist activity and acted as a CB2 antagonist; CB2 activity in suppressing interferon-γ-induced activation of microglia [5]: full CB2 agonist
CC(C)CCC[C@@H](C)[C@H]1CC[C@H]2[C@@H]3CC=C4C[C@@H](O)CC[C@]4(C)[C@H]3CC[C@]12C [cholesterol]	–	–	–	–	–	–	Effect on constitutive (basal) activity of the CB2 receptor ([6]; cell membrane preparations and liposomes): increases
CCCCCCC(C)(C)c1ccc([C@@H]2C[C@H](O)CC[C@H]2CCCO)c(O)c1 [CP55,940, 2-[(1R,2R,5R)-5-Hydroxy-2-(3-hydroxypropyl)cyclohexyl]-5-(2-methyloctan-2-yl)phenol, reference compound]	–	–	–	–	275 ± 4	–	–
methyl-β-cyclodextrin [MβCD, reference compound]	–	–	–	–	–	–	Effect on rates of activation of G protein on CB2 ([6]; Expi293F membranes treated with 20 mM MβCD): decreased by about twofold
COc1ccc2c(c1)sc(=NC(=O)C1C(C)(C)C1(C)C)n2CCOC(C)=O [MRI-2653, 2-(6-Methoxy-2-((2,2,3,3-tetramethylcyclopropane-1-carbonyl)imino)benzo[d]thiazol-3(2H)-yl)ethyl acetate]	0.094 ± 0.011	0.5 ± 0.09	inverse agonism	55	-46 ± 2	–	–
CC(=O)OCCn1c(=NC(=O)C2C(C)(C)C2(C)C)sc2cc(Br)ccc21 [MRI-2654, 2-(6-Bromo-2-((2,2,3,3-tetramethylcyclopropane-1-carbonyl)imino)benzo[d]thiazol-3(2H)-yl)ethyl acetate]	0.079 ± 0.009	0.76 ± 0.04	inverse agonism; also recorded: inverse agonist	55	-23 ± 3	–	–
CC(=O)OCCn1c(=NC(=O)C2C(C)(C)C2(C)C)sc2cc(OC(F)(F)F)ccc21 [MRI-2659, 2-(2-((2,2,3,3-tetramethylcyclopropane-1-carbonyl)imino)-6-(trifluoromethoxy)benzo[d]thiazol-3(2H)-yl)ethyl acetate]	0.053 ± 0.01	0.25 ± 0.1	inverse agonism	55	-55 ± 1	–	Pharmacological category in GEF assay [6, 7]: strong inverse agonist; Pharmacological category in GEF assay [6, 8]: strong inverse agonist
CC(=O)OCCn1c(C)c(C)s/c1=N\C(=O)C1C(C)(C)C1(C)C [MRI-2594]	0.031	0.09	full agonism	–	276 ± 4	agonist	Pharmacological category in GEF assay [6, 7]: (less-strong) agonist; Pharmacological category in GEF assay [6, 8]: full agonist; also recorded: strong agonist
